Laboratory results published in patent US10793580B2, “Substituted pyrazoloazepin-8-ones and their use as phosphodiesterase inhibitors” (LEO Pharma A/S, priority 2016, dated 2020).
Like-named read-outs stand apart in the source and are kept apart here.

Target: human PDE4D catalytic domain (Homo sapiens (Human), UniProt Q08499)
Experiment: PDE4 Assay (TR-FRET, FAM-cAMP cleavage)
Assay type: biochemical
Details: read-out: PDE4 IC50 range
How it was run: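 PDE4D catalytic domain (S380-L740) incubated briefly with unlabelled cAMP plus FAM-cAMP and titrated compound. Reaction stopped with binding buffer holding metal-ion nanoparticles that bind AMP phospho groups and Tb donor, and AMP formation read by TR-FRET. IC50 versus controls, reported as ranges (nM).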

[1] = human PDE4D catalytic domain (UniProt Q08499 [S380-L740]), 50% inhibition of substrate cleavage

Sequence of human PDE4D catalytic domain (Q08499 380-740): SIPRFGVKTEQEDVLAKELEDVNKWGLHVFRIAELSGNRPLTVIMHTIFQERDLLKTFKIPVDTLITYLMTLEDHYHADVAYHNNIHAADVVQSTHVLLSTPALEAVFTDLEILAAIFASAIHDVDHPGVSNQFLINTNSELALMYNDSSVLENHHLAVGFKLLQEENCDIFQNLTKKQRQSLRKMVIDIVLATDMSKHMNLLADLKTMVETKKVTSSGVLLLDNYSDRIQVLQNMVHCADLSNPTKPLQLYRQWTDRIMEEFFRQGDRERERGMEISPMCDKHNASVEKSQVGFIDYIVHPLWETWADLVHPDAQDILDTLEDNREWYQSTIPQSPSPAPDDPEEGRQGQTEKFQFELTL

Compound	IC50 [1] [µM]	other results
CCn1nc(CCCCOC(=O)c2cc(C)n(C)n2)c2c1C(=O)NCC1(CCOCC1)C2 [Example 272, 4-(1-ethyl-8-oxo-spiro[6,7-dihydro-4H-pyrazolo[3,4-c]azepine-5,4′-tetrahydro-pyran]-3-yl)butyl 1,5-dimethylpyrazole-3-carboxylate]	< 0.1	
CCn1nc(CCCOC(=O)c2ccc(S(=O)(=O)N3CCN(C(C)=O)CC3)cc2)c2c1C(=O)NCC1(CCOCC1)C2 [Example 102, 3-(1-ethyl-8-oxo-spiro[6,7-dihydro-4H-pyrazolo[3,4-c]azepine-5,4′-tetrahydropyran]-3-yl)propyl 4-(4-acetylpiperazin-1-yl)sulfonylbenzoate]	< 0.1	
CCn1nc(CCCCOC(=O)c2cnc(C)o2)c2c1C(=O)NCC1(CCOCC1)C2 [Example 267, 4-(1-ethyl-8-oxo-spiro[6,7-dihydro-4H-pyrazolo[3,4-c]azepine-5,4′-tetrahydropyran]-3-yl)butyl 2-methyloxazole-5-carboxylate]	< 0.1	
CCn1nc(CCCOC(=O)C2CCS(=O)(=O)CC2)c2c1C(=O)NCC1(CCOCC1)C2 [Example 262, 3-(1-ethyl-8-oxo-spiro[6,7-dihydro-4H-pyrazolo[3,4-c]azepine-5,4′-tetrahydro-pyran]-3-yl)propyl 1,1-dioxothiane-4-carboxylate]	< 0.1	
CCn1nc(CCCOC(=O)c2cc(F)ccc2F)c2c1C(=O)NCC1(CCOCC1)C2 [Example 25, 3-(1-ethyl-8-oxo-spiro[6,7-dihydro-4H-pyrazolo[3,4-c]azepine-5,4′-tetrahydropyran]-3-yl)propyl 2,5-difluorobenzoate]	< 0.1	
CCn1nc(CCCOC(=O)c2ccc(C(=O)N3CCCCC3)cc2)c2c1C(=O)NCC1(CCOCC1)C2 [Example 108, 3-(1-ethyl-8-oxo-spiro[6,7-dihydro-4H-pyrazolo[3,4-c]azepine-5,4′-tetrahydro-pyran]-3-yl)propyl 4-(piperidine-1-carbonyl)benzoate]	< 0.1	
CCn1nc(CCCOC(=O)c2ccc(C(=O)N(C)C)cc2)c2c1C(=O)NCC1(CCOCC1)C2 [Example 106, 3-(1-ethyl-8-oxo-spiro[6,7-dihydro-4H-pyrazolo[3,4-c]azepine-5,4′-tetrahydro-pyran]-3-yl)propyl 4-(dimethylcarbamoyl)benzoate]	< 0.1	
CCn1nc(C[C@@H](C)COC(=O)c2ccc(S(=O)(=O)C(C)C)cc2)c2c1C(=O)NCC1(CCOCC1)C2 [Example 160, [(2R)-3-(1-ethyl-8-oxo-spiro[6,7-dihydro-4H-pyrazolo[3,4-c]azepine-5,4′-tetrahydropyran]-3-yl)-2-methyl-propyl] 4-isopropylsulfonylbenzoate]	< 0.1	
CCn1nc(CC(C)(C)COC(=O)c2ccc(OC)cc2)c2c1C(=O)NCC1(CCOCC1)C2 [Example 197, [3-(1-ethyl-8-oxo-spiro[6,7-dihydro-4H-pyrazolo[3,4-c]azepine-5,4′-tetrahydropyran]-3-yl)-2,2-dimethyl-propyl] 4-methoxybenzoate]	< 0.1	
CCn1nc(CCCOC(=O)c2ccc(C(F)F)cc2)c2c1C(=O)NCC1(CCOCC1)C2 [Example 45, 3-(1-ethyl-8-oxo-spiro[6,7-dihydro-4H-pyrazolo[3,4-c]azepine-5,4′-tetrahydropyran]-3-yl)propyl 4-(difluoromethyl)benzoate]	< 0.1	
CCn1nc(CCCOC(=O)c2ccc(S(=O)(=O)N3CCOCC3)cc2)c2c1C(=O)NCC1(CCOCC1)C2 [Example 100, 3-(1-ethyl-8-oxo-spiro[6,7-dihydro-4H-pyrazolo[3,4-c]azepine-5,4′-tetrahydropyran]-3-yl)propyl 4-morpholinosulfonylbenzoate]	< 0.1	
CCn1nc(CC(C)(C)COC(=O)CCOC)c2c1C(=O)NCC1(CCOCC1)C2 [Example 186, [3-(1-ethyl-8-oxo-spiro[6,7-dihydro-4H-pyrazolo[3,4-c]azepine-5,4′-tetrahydropyran]-3-yl)-2,2-dimethyl-propyl] 3-methoxypropanoate]	< 0.1	
CCn1nc(C[C@@H](C)COC(=O)c2coc(C)n2)c2c1C(=O)NCC1(CCOCC1)C2 [Example 281, [(2R)-3-(1-ethyl-8-oxo-spiro[6,7-dihydro-4H-pyrazolo[3,4-c]azepine-5,4′-tetrahydropyran]-3-yl)-2-methyl-propyl] 2-methyloxazole-4-carboxylate]		IC50 (Table 16, Examples 277-296): < 0.1 µM
CCn1nc(CC(C)(C)COC(=O)c2cccc(OC)c2)c2c1C(=O)NCC1(CCOCC1)C2 [Example 196, [3-(1-ethyl-8-oxo-spiro[6,7-dihydro-4H-pyrazolo[3,4-c]azepine-5,4′-tetrahydropyran]-3-yl)-2,2-dimethyl-propyl] 3-methoxybenzoate]	< 0.1	
CCn1nc(CCCOC(=O)C(C)C)c2c1C(=O)NCC1(CCOCC1)C2 [Example 4, 3-(1-ethyl-8-oxo-spiro[6,7-dihydro-4H-pyrazolo[3,4-c]azepine-5,4′-tetrahydropyran]-3-yl)propyl 2-methylpropanoate]	< 0.1	
CCn1cc(C(=O)OCCCc2nn(CC)c3c2CC2(CCOCC2)CNC3=O)cn1 [Example 250, 3-(1-ethyl-8-oxo-spiro[6,7-dihydro-4H-pyrazolo[3,4-c]azepine-5,4′-tetrahydropyran]-3-yl)propyl 1-ethylpyrazole-4-carboxylate]	< 0.1	
CCn1nc(CCCOC(=O)c2cnc(C)s2)c2c1C(=O)NCC1(CCOCC1)C2 [Example 255, 3-(1-ethyl-8-oxo-spiro[6,7-dihydro-4H-pyrazolo[3,4-c]azepine-5,4′-tetrahydropyran]-3-yl)propyl 2-methylthiazole-5-carboxylate]	< 0.1	
CCn1nc(CC(C)(C)COC(=O)c2cccc(S(=O)(=O)N3CCOCC3)c2)c2c1C(=O)NCC1(CCOCC1)C2 [Example 212, [3-(1-ethyl-8-oxo-spiro[6,7-dihydro-4H-pyrazolo[3,4-c]azepine-5,4′-tetrahydropyran]-3-yl)-2,2-dimethyl-propyl] 3-morpholinosulfonylbenzoate]	< 0.1	
CCn1nc(CCCOC(=O)c2ccc(S(=O)(=O)N3CCCC3)cc2)c2c1C(=O)NCC1(CCOCC1)C2 [Example 96, 3-(1-ethyl-8-oxo-spiro[6,7-dihydro-4H-pyrazolo[3,4-c]azepine-5,4′-tetrahydro-pyran]-3-yl)propyl 4-pyrro-lidin-1-ylsulfonylbenzoate]	< 0.1	
CCn1nc(CCCOC(=O)c2cccc(OC)c2F)c2c1C(=O)NCC1(CCOCC1)C2 [Example 39, 3-(1-ethyl-8-oxo-spiro[6,7-dihydro-4H-pyrazolo[3,4-c]azepine-5,4′-tetrahydropyran]-3-yl)propyl 2-fluoro-3-methoxy-benzoate]	< 0.1	
CCn1nc(C[C@@H](C)COC(=O)c2ccc(S(=O)(=O)N(C)C)cc2)c2c1C(=O)NCC1(CCOCC1)C2 [Example 161, [(2R)-3-(1-ethyl-8-oxo-spiro[6,7-dihydro-4H-pyrazolo[3,4-c]azepine-5,4′-tetrahydropyran]-3-yl)-2-methyl-propyl] 4-(di-methylsulfamoyl)benzoate]	< 0.1	
CCn1nc(CC(C)(C)COC(=O)c2cccc(C(C)=O)c2)c2c1C(=O)NCC1(CCOCC1)C2 [Example 201, [3-(1-ethyl-8-oxo-spiro[6,7-dihydro-4H-pyrazolo[3,4-c]azepine-5,4′-tetrahydropyran]-3-yl)-2,2-dimethyl-propyl] 3-acetylbenzoate]	< 0.1	
CCn1nc(C[C@@H](C)COC(=O)c2ccns2)c2c1C(=O)NCC1(CCOCC1)C2 [Example 283, [(2R)-3-(1-ethyl-8-oxo-spiro[6,7-dihydro-4H-pyrazolo[3,4-c]azepine-5,4′-tetrahydropyran]-3-yl)-2-methyl-propyl] isothiazole-5-carboxylate]		IC50 (Table 16, Examples 277-296): < 0.1 µM
CCn1nc(CC(C)(C)COC(=O)c2csc(C)n2)c2c1C(=O)NCC1(CCOCC1)C2 [Example 310, [3-(1-ethyl-8-oxo-spiro[6,7-dihydro-4H-pyrazolo[3,4-c]azepine-5,4′-tetrahydro-pyran]-3-yl)-2,2-dimethyl-propyl] 2-methylthiazole-4-carboxylate]		IC50 (Table 17, Examples 297-316): < 0.1 µM
CCn1nc(CCCOC(=O)c2ccc(C#N)cc2)c2c1C(=O)NCC1(CCOCC1)C2 [Example 12, 3-(1-ethyl-8-oxo-spiro[6,7-dihydro-4H-pyrazolo[3,4-c]azepine-5,4′-tetrahydropyran]-3-yl) propyl 4-cyanobenzoate]	< 0.1	
CCn1nc(CCCOC(=O)c2ccc(C(F)(F)F)cc2F)c2c1C(=O)NCC1(CCOCC1)C2 [Example 70, 3-(1-ethyl-8-oxo-spiro[6,7-dihydro-4H-pyrazolo[3,4-c]azepine-5,4′-tetrahydro-pyran]-3-yl)propyl 2-fluoro-4-(trifluoromethyl)benzoate]	< 0.1	
CCn1nc(C[C@@H](C)COC(=O)C2CCN(C(=O)N(C)C)CC2)c2c1C(=O)NCC1(CCOCC1)C2 [Example 296, [(2R)-3-(1-ethyl-8-oxo-spiro[6,7-dihydro-4H-pyrazolo[3,4-c]azepine-5,4′-tetrahydropyran]-3-yl)-2-methyl-propyl] 1-(dimethylcarbamoyl)piperidine-4-carboxylate]		IC50 (Table 16, Examples 277-296): < 0.1 µM
CCn1nc(C[C@@H](C)COC(=O)C2CCN(C(C)=O)CC2)c2c1C(=O)NCC1(CCOCC1)C2 [Example 294, [(2R)-3-(1-ethyl-8-oxo-spiro[6,7-dihydro-4H-pyrazolo[3,4-c]azepine-5,4′-tetrahydropyran]-3-yl)-2-methyl-propyl] 1-acetylpiperidine-4-carboxylate]		IC50 (Table 16, Examples 277-296): < 0.1 µM
CCn1nc(CCCOC(=O)c2ccns2)c2c1C(=O)NCC1(CCOCC1)C2 [Example 242, 3-(1-ethyl-8-oxo-spiro[6,7-dihydro-4H-pyrazolo[3,4-c]azepine-5,4′-tetrahydropyran]-3-yl)propyl isothiazole-5-carboxylate]	< 0.1	
